Where two headings read alike, the source gives them in different places.
Tests used:
Type in all cases: cell-based
[1] = tested on: anaerobic bacteria which normally inhabit the gut of poultry, swine or cattle; assay: in vitro MIC assay, overall comparison of components across the test organisms; conditions: conclusion from Tables III and IV
Experimental: (§1) The assay measures the ability of a compound to inhibit the growth of certain types of anaerobic bacteria which normally inhabit the gut of poultry, swine or cattle.
(§2) Two mg/ml solutions of the drugs to be tested are made in 10% v/v ethanol/water. This stock is then diluted to one mg per ml and then further diluted through a series of ten-two fold dilutions. At each concentration an aliquot is placed in a sterile petri plate. Nine volumes of molten agar are then added to each plate, mixed and allowed to harden at room temperature. These plates are then transferred to a Coy chamber and allowed to dry and equilibrate with the oxygen free atmosphere.
(§3) Organisms used for MIC testing are inoculated into broth media, and incubated 18-24 h at 39° C. prior to use. The cultures are then diluted to equal the turbidity of a 0.5 MacFarland barium sulfate standard, except for the porcine isolates P108-3C1, P105-1C3 and P105-1C4 which are diluted 1:1. All inoculations and dilutions are performed in the anaerobic chamber using broth media and syringe transfer through the butyl robber stoppers.
(§4) Freshly prepared and diluted cultures are loaded into the wells of a Steers replicator device. This apparatus can dispense ca 10 μl of each of 32 cultures onto the surface of the preincubated agar plates. One hour after the inoculation, the inoculum will have been absorbed and the plates are inverted and incubated at 38°-39° C. for 48 h. Plates are then removed from the chamber and the MIC for the test compounds determined. MIC's are reported as the lowest concentration of a compound which prevented detectable growth of a test organism on the agar plates. […] Thus, each set of test plates yields individual MIC values for each of the 32 test organisms.

C. perfringens = tested on: C. perfringens; set-up: Minimal Inhibitory Concentration (bioactivity data): unit not given here; conditions: for M.I.C.: Table III, mass basis, no correction for purity; for Minimal Inhibitory Concentration (bioactivity data): Table IV (separate study)
S. ruminantium = conditions: for M.I.C.: Table III, mass basis, no correction for purity; for Minimal Inhibitory Concentration (bioactivity data): Table IV (separate study)
S. hyodysenteriae = tested on: S. hyodysenteriae; set-up: unit not given here; conditions: Table IV (separate study)
Experimental: as §1, §2, §3, §4

E. lentum = conditions: strain L-34; Table IV (separate study)
F. necrophorum = conditions: for M.I.C.: Table III, mass basis, no correction for purity; for Minimal Inhibitory Concentration (bioactivity data): Table IV (separate study)
L. multiparus = conditions: strain 40; for M.I.C.: Table III, mass basis, no correction for purity; for Minimal Inhibitory Concentration (bioactivity data): Table IV (separate study)
R. flavefaciens = conditions: for M.I.C.: Table III, mass basis, no correction for purity; for Minimal Inhibitory Concentration (bioactivity data): Table IV (separate study)
S. bovis = conditions: strain JB1; for M.I.C.: Table III, mass basis, no correction for purity; for Minimal Inhibitory Concentration (bioactivity data): Table IV (separate study)
B. fibrisolvens = conditions: for M.I.C.: Table III, mass basis, no correction for purity; for Minimal Inhibitory Concentration (bioactivity data): Table IV (separate study)
E. ruminantium = conditions: strain GA195; for M.I.C.: Table III, mass basis, no correction for purity
B. fragilis = conditions: strain UC9370; for M.I.C.: Table III, mass basis, no correction for purity; for Minimal Inhibitory Concentration (bioactivity data): Table IV (separate study)
S. faecalis = conditions: for M.I.C.: Table III, mass basis, no correction for purity; for Minimal Inhibitory Concentration (bioactivity data): Table IV (separate study)
R. amylophilus = conditions: strain H18; for M.I.C.: Table III, mass basis, no correction for purity; for Minimal Inhibitory Concentration (bioactivity data): Table IV (separate study)
M. elsdenii = conditions: strain B159; for M.I.C.: Table III, mass basis, no correction for purity; for Minimal Inhibitory Concentration (bioactivity data): Table IV (separate study)
B. thetaiotaomicron = conditions: strain UC9014; for M.I.C.: Table III, mass basis, no correction for purity; for Minimal Inhibitory Concentration (bioactivity data): Table IV (separate study)
Experimental: as §1, §2, §3, §4

P. ruminicola = conditions: strain 118B; for M.I.C.: Table III, mass basis, no correction for purity; for Minimal Inhibitory Concentration (bioactivity data): Table IV (separate study)

C=C(NC(=O)C(=C)NC(=O)C(=C)NC(=O)c1ccc2c(n1)-c1nc(oc1C)C(C)NC(=O)c1csc(n1)C(C)NC(=O)c1nc(oc1C)CNC(=O)C(C(C)C)NC(=O)c1csc-2n1)C(N)=O (stereo not shown) [Antibiotic 10381x]
< 0.2: Minimal Inhibitory Concentration (bioactivity data) (E. lentum)
1.6 µg/mL: M.I.C. (C. perfringens; strain A83-RKP) | M.I.C. (C. perfringens; strain CCS2-09) | M.I.C. (C. perfringens; strain P1083C1) | M.I.C. (B. fibrisolvens; strain 49)
> 100.0 µg/mL: M.I.C. (C. perfringens; strain P1051C3) | M.I.C. (S. ruminantium; strain GA31) | M.I.C. (S. ruminantium; strain GA192) | M.I.C. (F. necrophorum; strain FN4070) | M.I.C. (F. necrophorum; strain FN5052) | M.I.C. (R. amylophilus) | M.I.C. (M. elsdenii)
25.0: Minimal Inhibitory Concentration (bioactivity data) (C. perfringens; strain A83-3) | Minimal Inhibitory Concentration (bioactivity data) (R. amylophilus)
100: Minimal Inhibitory Concentration (bioactivity data) (C. perfringens; strain CCS2-09) | Minimal Inhibitory Concentration (bioactivity data) (C. perfringens; strain P1083C1) | Minimal Inhibitory Concentration (bioactivity data) (R. flavefaciens; strain FD1) | Minimal Inhibitory Concentration (bioactivity data) (B. fibrisolvens; strain D1) | Minimal Inhibitory Concentration (bioactivity data) (E. ruminantium; Table IV (separate study))
6.3: Minimal Inhibitory Concentration (bioactivity data) (S. ruminantium; strain GA31) | Minimal Inhibitory Concentration (bioactivity data) (S. ruminantium; strain GA192)
50.0 µg/mL: M.I.C. (C. perfringens; strain A82-1) | M.I.C. (C. perfringens; strain CCS1-11) | M.I.C. (S. faecalis; strain CCS1-03) | M.I.C. (S. faecalis; strain P1051C4) | M.I.C. (B. thetaiotaomicron)
> 100: Minimal Inhibitory Concentration (bioactivity data) (C. perfringens; strain A82-1) | Minimal Inhibitory Concentration (bioactivity data) (C. perfringens; strain P1051C3) | Minimal Inhibitory Concentration (bioactivity data) (S. hyodysenteriae; strain 16-4) | Minimal Inhibitory Concentration (bioactivity data) (S. hyodysenteriae; strain B204) | Minimal Inhibitory Concentration (bioactivity data) (F. necrophorum; strain FN4070) | Minimal Inhibitory Concentration (bioactivity data) (F. necrophorum; strain FN5052) | Minimal Inhibitory Concentration (bioactivity data) (L. multiparus) | Minimal Inhibitory Concentration (bioactivity data) (R. flavefaciens; strain C94) | Minimal Inhibitory Concentration (bioactivity data) (S. bovis) | Minimal Inhibitory Concentration (bioactivity data) (B. fibrisolvens; strain 49) | Minimal Inhibitory Concentration (bioactivity data) (B. fragilis) | Minimal Inhibitory Concentration (bioactivity data) (S. faecalis; strain 71A01) | Minimal Inhibitory Concentration (bioactivity data) (S. faecalis; strain CCS1-03) | Minimal Inhibitory Concentration (bioactivity data) (S. faecalis; strain P1051C4) | Minimal Inhibitory Concentration (bioactivity data) (M. elsdenii) | Minimal Inhibitory Concentration (bioactivity data) (B. thetaiotaomicron)
100.0 µg/mL: M.I.C. (B. fragilis) | M.I.C. (S. faecalis; strain 71A01)
0.2 µg/mL: M.I.C. (P. ruminicola)
25.0 µg/mL: M.I.C. (S. bovis)
3.1 µg/mL: M.I.C. (C. perfringens; strain RF1B04) | M.I.C. (R. flavefaciens; strain C94) | M.I.C. (B. fibrisolvens; strain D1) | M.I.C. (E. ruminantium)
50.0: Minimal Inhibitory Concentration (bioactivity data) (C. perfringens; strain A83-RKP) | Minimal Inhibitory Concentration (bioactivity data) (C. perfringens; strain RF1B04) | Minimal Inhibitory Concentration (bioactivity data) (C. perfringens; strain UC9452)
6.3 µg/mL: M.I.C. (C. perfringens; strain 71A02) | M.I.C. (C. perfringens; strain A83-3) | M.I.C. (C. perfringens; strain UC9452) | M.I.C. (L. multiparus) | M.I.C. (R. flavefaciens; strain FD1)
considerably less active: in vitro activity ranking of the individual components [1]
12.5: Minimal Inhibitory Concentration (bioactivity data) (P. ruminicola)

C=C(NC(=O)C(=C)NC(=O)C(=C)NC(=O)c1ccc2c(n1)-c1coc(n1)C(=C)NC(=O)C(=C)NC(=O)c1nc(oc1C)/C(=C/C)NC(=O)c1csc(n1)C(OC)NC(=O)c1nc(oc1C)/C(=C/C(C)O)NC(=O)[C@H]([C@@H](C)O)NC(=O)c1csc-2n1)C(N)=O (stereo partly shown) [Antibiotic 10381b, sulfomycin I, reference compound]
1.6: Minimal Inhibitory Concentration (bioactivity data) (C. perfringens; strain P1083C1) | Minimal Inhibitory Concentration (bioactivity data) (C. perfringens; strain UC9452) | Minimal Inhibitory Concentration (bioactivity data) (S. ruminantium; strain GA192) | Minimal Inhibitory Concentration (bioactivity data) (L. multiparus) | Minimal Inhibitory Concentration (bioactivity data) (R. flavefaciens; strain FD1) | Minimal Inhibitory Concentration (bioactivity data) (B. fibrisolvens; strain 49) | Minimal Inhibitory Concentration (bioactivity data) (R. amylophilus)
50.0: Minimal Inhibitory Concentration (bioactivity data) (B. fragilis)
1.6 µg/mL: M.I.C. (C. perfringens; strain 71A02) | M.I.C. (L. multiparus) | M.I.C. (R. flavefaciens; strain FD1)
0.4 µg/mL: M.I.C. (C. perfringens; strain P1083C1) | M.I.C. (C. perfringens; strain RF1B04) | M.I.C. (E. ruminantium)
< 0.2 µg/mL: M.I.C. (P. ruminicola)
25.0 µg/mL: M.I.C. (B. fragilis) | M.I.C. (S. faecalis; strain 71A01)
3.1: Minimal Inhibitory Concentration (bioactivity data) (S. faecalis; strain P1051C4)
100: Minimal Inhibitory Concentration (bioactivity data) (F. necrophorum; strain FN4070) | Minimal Inhibitory Concentration (bioactivity data) (F. necrophorum; strain FN5052)
0.8 µg/mL: M.I.C. (C. perfringens; strain A83-RKP) | M.I.C. (C. perfringens; strain CCS2-09) | M.I.C. (R. flavefaciens; strain C94) | M.I.C. (B. fibrisolvens; strain D1)
12.5: Minimal Inhibitory Concentration (bioactivity data) (C. perfringens; strain A82-1) | Minimal Inhibitory Concentration (bioactivity data) (C. perfringens; strain P1051C3) | Minimal Inhibitory Concentration (bioactivity data) (S. faecalis; strain 71A01)
50.0 µg/mL: M.I.C. (C. perfringens; strain P1051C3) | M.I.C. (F. necrophorum; strain FN4070)
6.3 µg/mL: M.I.C. (C. perfringens; strain CCS1-11) | M.I.C. (B. fibrisolvens; strain 49)
> 100.0 µg/mL: M.I.C. (S. ruminantium; strain GA192) | M.I.C. (R. amylophilus) | M.I.C. (M. elsdenii)
25.0: Minimal Inhibitory Concentration (bioactivity data) (B. thetaiotaomicron)
3.1 µg/mL: M.I.C. (C. perfringens; strain A82-1) | M.I.C. (C. perfringens; strain A83-3) | M.I.C. (C. perfringens; strain UC9452) | M.I.C. (S. bovis)
100.0 µg/mL: M.I.C. (S. ruminantium; strain GA31) | M.I.C. (F. necrophorum; strain FN5052)
12.5 µg/mL: M.I.C. (S. faecalis; strain CCS1-03) | M.I.C. (S. faecalis; strain P1051C4) | M.I.C. (B. thetaiotaomicron)
> 100: Minimal Inhibitory Concentration (bioactivity data) (S. hyodysenteriae; strain 16-4) | Minimal Inhibitory Concentration (bioactivity data) (S. hyodysenteriae; strain B204) | Minimal Inhibitory Concentration (bioactivity data) (M. elsdenii)
second most active: in vitro activity ranking of the individual components [1]
0.8: Minimal Inhibitory Concentration (bioactivity data) (C. perfringens; strain A83-RKP) | Minimal Inhibitory Concentration (bioactivity data) (C. perfringens; strain CCS2-09) | Minimal Inhibitory Concentration (bioactivity data) (S. ruminantium; strain GA31) | Minimal Inhibitory Concentration (bioactivity data) (R. flavefaciens; strain C94) | Minimal Inhibitory Concentration (bioactivity data) (S. bovis) | Minimal Inhibitory Concentration (bioactivity data) (B. fibrisolvens; strain D1)
6.3: Minimal Inhibitory Concentration (bioactivity data) (S. faecalis; strain CCS1-03)
< 0.2: Minimal Inhibitory Concentration (bioactivity data) (C. perfringens; strain 71A02) | Minimal Inhibitory Concentration (bioactivity data) (C. perfringens; strain A83-3) | Minimal Inhibitory Concentration (bioactivity data) (C. perfringens; strain CCS1-11) | Minimal Inhibitory Concentration (bioactivity data) (C. perfringens; strain RF1B04) | Minimal Inhibitory Concentration (bioactivity data) (E. lentum) | Minimal Inhibitory Concentration (bioactivity data) (P. ruminicola)

Source: patent US5736510A, “Antibiotics 10381v, w, x,y, z1, z2, pre-b and t” (priority 1996, dated 1998)
